{
  "source": "paper PMC10788856",
  "about": "“Mimicking Nonribosomal Peptides from the Marine Actinomycete Streptomyces sp. H-KF8 Leads to Antimicrobial Peptides” (ACS Infectious Diseases, 2023)",
  "key": {"C. albicans": {"system": "C. albicans", "assay": "microbe, parasite or virus in culture", "type": "cell-based", "settings": "16 h"}, "[1]": {"system": "Candida albicans (ATCC 64549/CCUG31028)", "assay": "Minimum microbicidal concentration (MMC99) assay", "type": "cell-based, C. albicans", "settings": "BHI diluted 1/100, 37 °C, median, n = 3", "method": "(§1) The microbicidal activity of the synthetic peptides was assessed against S. aureus (ATCC 12600; American Type Culture Collection, Manassas, VA, USA), Escherichia coli (CCUG 31246; Culture Collection, University of Gothenburg, Sweden), and Candida albicans (ATCC 64549/CCUG31028) using an MMC assay, as described previously by […] et al. (specific details in Supporting Information, pages 10, 11).[28] The assay was performed in BHI diluted 1/100 (BHI100). […] page 11: Table S5. Energy and structural ensembles of synthesized peptides. […] Energy -3887.06 -3620.88 -4968.42 -2163.76 -2646.75 Van der Waals solv. Energy 117.32 91.57 183.20 -88.88 -139.89 Mean RMSD* (Å), mean±SD […] Heavy atoms 1.87 ± 0.33 1.77 ± 0.50 0.98 ± 0.34 0.63 ±0.22 2.88 ±0.62 MMC99 activity including salt stability measurements Antimicrobial activity of L2 and L3 in the presence of NaCl. 1Table S6. Peptide MMC99 (μg/ml) sin NaCl S. aureus E.coli C. albicans (mM) 2[…] 0 50 25 25 85 - - - - - - >200 >200 >200 150 - - - - - - >200 >200 >200 3L 0 12.5 12.5 25 12,5 6.3 6.3 12.5 6.3 12.5 […] 150 >400 >400 (-)2 >400 >400 >400 >200 >200 >200 […] or 150 mM NaCl. L2 and L3 were serially diluted in twofold steps with a starting dilution of 200 μg/ml […] All sample dilutions were run in duplicates (L2) or triplicates (L3). 2 The growth of S. aureus at 24 h in BHI 100 with 85 or 150 mM NaCl was reduced. Minimum microbicidal concentration (MMC), killing 99% of the inoculum. All microorganisms were cultured in brain-heart infusion broth (BHI) overnight on a shaker at 37°C. The cultures were thereafter transferred to fresh BHI broth in volumes constituting 10% of total, and incubated for an additional 2 h to reach exponential growth phase. The bacterial cultures were washed once in BHI diluted 1/100 (BHI100), followed by resuspension in BHI100. The cell suspensions were diluted to a density of […] (bacteria) or 2x10^7 CFU/ml (yeast), as estimated by optical density measurement at 590 nm. […] Serum stability Figure S 133. […] A) peptide L2 B) peptide L3. C) peptide L3-K. D) peptide C3."}, "[2]": {"system": "Escherichia coli (CCUG 31246)", "assay": "Minimum microbicidal concentration (MMC99) assay", "type": "cell-based, E. coli", "settings": "BHI diluted 1/100", "method": "as §1"}, "E. coli CCUG31246": {"system": "E. coli CCUG31246", "type": "cell-based", "settings": "E. coli CCUG31246; 1:10 BHI; 5 × 10^5 CFU/mL; 37 °C, 16 h, steady agitation; used as 1× MIC", "method": "MICs were performed under the same growth conditions used for mode of action analysis following the guidelines issued by the Clinical Laboratory Standardization Institute (CLSI) with slight modifications. Serial two-fold dilutions of the peptides were prepared in 1:10 BHI in a sterile 96-well plate and subsequently inoculated with 5 × 10^5 CFU/mL of E. coli CCUG31246. […] The following MICs were obtained: C3: 512 μg/mL, L3: 64 μg/mL, and L3-K: 128 μg/mL. These concentrations were used for all mechanistic experiments. Polymyxin B was used as a positive control in all assays at a final concentration of 10 μg/mL."}, "[3]": {"system": "E. coli MC4100 pABCON2-fhuA ΔC/Δ4L", "assay": "DiSC(3)5 microscopy (membrane potential), outer membrane permeable strain", "type": "cell-based", "settings": "1× MIC; 10 and 60 min; 0.5 μM DiSC(3)5", "experimental": "To test this hypothesis, we employed an E. coli strain that overexpresses the outer membrane porin FhuA, making these cells more permeable to most fluorescence dyes including DiSC(3)5.[41]\nThe membrane potential of E. coli CCUG31246 and E. coli MC4100 carrying pABCON2-fhuA ΔC/Δ4L was measured by DiSC(3)5 microscopy according to ref. ([40]) with minor modifications. Cells were grown in 1:10 BHI containing 50 μg/mL bovine serum albumin to an OD600 of 0.3 prior to antibiotic treatment with the respective peptides for 10 and 60 min. Samples were stained with 0.5 μM DiSC(3)5 for 15 min (added 5 min before adding antibiotics for the 10 min time point and after 45 min of antibiotic treatment for the 60 min time point). Stained samples were spotted on 1.2% agarose, sealed with a gene frame, and imaged immediately. Microscopy was performed as described above, and fluorescence intensity was analyzed with the same parameters used for propidium iodide detection."}, "[4]": {"system": "human embryonic kidney (HEK) cells", "type": "cell-based", "method": "To confirm the peptide selectivity toward bacteria cells, cytotoxicity assays of synthesized peptides L2, L3, L3-K, and C3 against human embryonic kidney (HEK) and hepatoblastoma (HepG2) were performed (Figure 4). The cell viability was assessed using resazurin 24 h post peptide exposure. The line at 70% cell viability marks out the threshold for cytotoxic potential compared to the negative control.\nFigure 4 Cell viability assessment using the resazurin assay 24 h post peptide exposure: (a) HepG2 and (b) HEK cells were treated with various concentrations of the peptides C3, L3, L3-K, and L2. Triton-X was used as a positive control. Cells cultured in pure cell media were used as negative controls and were considered to have 100% cell viability. The line represents the threshold for cytotoxicity level of 70% of cell viability compared to the negative control. Data are presented as the mean ± SD of three biological replicates of the HepG2 cells and the mean ± SD of two biological replicates of the HEK cells.\nCytotoxicity against human embryonic kidney (HEK) and hepatoblastoma (HepG2) cell lines was assessed. Cells were grown to an initial seeding density of 10 000 cells per well. Metabolic activity was determined in a resazurin-based assay. HEK and HepG2 cells were exposed to four different concentrations of the peptides for 24 h. Treatment with Triton X-100 at 1% v/v was used as a positive control. Following this exposure period, the cells were treated with resazurin at a final concentration of 0.015 mg/mL for 3 h. The metabolic activity was then determined in an resazurin-based assay. The fluorescence intensities were quantified in a Hidex Sense microplate reader using an excitation wavelength of 544 nm and an emission wavelength of 590 nm."}, "S. aureus (ATCC 12600)": {"system": "S. aureus (ATCC 12600)", "assay": "Minimum microbicidal concentration (MMC99) assay", "type": "cell-based", "settings": "BHI diluted 1/100, 37 °C, median, n = 3", "method": "as §1"}},
  "note": "Numbered stars: 1 amine (or outer) side, 2 acyl side, 3 side chain; on linkers, the order of the positions; unused ones are H or OH. Bridge positions count the residues as written; N and C are the ends. Square brackets hold non-standard residues; d marks the D form. Peptide text beside a SMILES is read from it. Tyr(3-NO2) = N[C@@H](Cc1ccc(O)c([N+](=O)[O-])c1)C(=O)O; Glutaryl = O=C(CCCC(=O)[*:2])[*:1]; Orn = NCCC[C@H](N)C(=O)O",
  "data": [
    {"smiles": "CC(C)[C@H]1NC(=O)[C@H](CCCN)NC(=O)[C@H]([C@@H](C)O)NC(=O)[C@H](CCCN)NC(=O)[C@H](Cc2c[nH]c3ccccc23)NC(=O)[C@@H](C)NC(=O)[C@@H](C(C)C)NC(=O)[C@@H](C)NC(=O)[C@H](Cc2c[nH]c3ccccc23)NC(=O)CCCC(=O)NCCCC[C@@H](C(N)=O)NC(=O)[C@H](Cc2ccc(O)c([N+](=O)[O-])c2)NC1=O", "note": "[C3] (W[dA][dV][dA]W[Orn]T[Orn][dV][Tyr(3-NO2)]K-NH2; linker N-11 via Glutaryl)", "values": [
      {"measurement": "C. albicans MIC", "setting": "C. albicans", "result": ">512", "unit": "µg/mL"},
      {"measurement": "C. albicans MMC99 2 h", "setting": "[1]; 2 h", "result": ">100", "unit": "µg/mL"},
      {"measurement": "C. albicans MMC99 6 h", "setting": "[1]; 6 h", "result": ">100", "unit": "µg/mL"},
      {"measurement": "C. albicans MMC99 24 h", "setting": "[1]; 24 h", "result": ">100", "unit": "µg/mL"},
      {"measurement": "active concentrations against E. coli (MMC99, text)", "setting": "[2]", "result": "≥ 100", "unit": "µg/mL"},
      {"measurement": "E. coli MMC99 2 h", "setting": "[2]; 37 °C, 2 h, median, n = 3", "result": ">100", "unit": "µg/mL"},
      {"measurement": "E. coli MMC99 6 h", "setting": "[2]; 37 °C, 6 h, median, n = 3", "result": ">100", "unit": "µg/mL"},
      {"measurement": "E. coli MMC99 24 h", "setting": "[2]; 37 °C, 24 h, median, n = 3", "result": 100, "unit": "µg/mL"},
      {"measurement": "MIC obtained for mechanistic experiments", "setting": "E. coli CCUG31246", "result": 512, "unit": "µg/mL"},
      {"measurement": "membrane depolarization in the FhuA-overexpressing strain", "setting": "[3]", "result": "stronger depolarization in the FhuA-overexpressing strain"},
      {"measurement": "cytotoxicity, cell viability HEK", "setting": "[4]", "result": "at the highest tested concentration seems to have cytotoxic properties"},
      {"measurement": "S. aureus MMC99 6 h", "setting": "S. aureus (ATCC 12600); 6 h", "result": ">100", "unit": "µg/mL"},
      {"measurement": "S. aureus MMC99 24 h", "setting": "S. aureus (ATCC 12600); 24 h", "result": ">100", "unit": "µg/mL"},
      {"measurement": "S. aureus MMC99 2 h", "setting": "S. aureus (ATCC 12600); lowest concentration killing 99% of inoculum, 2 h, two-fold dilutions 100-1.6 μg/mL", "result": ">100", "unit": "µg/mL"}
    ]}
  ]
}
